Experimental data as given in ChEMBL document CHEMBL1135188, “Synthesis and anti-tumor activity of novel combretastatins: combretocyclopentenones and related analogues” (Bioorg Med Chem Lett, 2002).
Values after ≈ are worked out from the molar mass of the structure shown.

Columns and labels:
B16 = test: Cytotoxicity expressed as inhibitory concentration required to reduce the cell growth of B16 murine melanoma cell line; assay type: functional, cell-based; settings: Mus musculus
HCT-116 = test: Cytotoxicity expressed as inhibitory concentration required to reduce the cell growth of HCT116 human colon carcinoma cell line; assay type: functional, cell-based
A-431 = test: Cytotoxicity expressed as inhibitory concentration required to reduce the cell growth of A431 human epidermal carcinoma cell line; assay type: functional, cell-based
[1] = Inhibition ratio expressed as percentage showing significant anti-tumor activity in BDF1 mice bearing Lewis lung carcinoma cells was determined; assay type: functional

Structure (SMILES) | IC50 (B16) [µg/mL] | IC50 (HCT-116) [µg/mL] | IC50 (A-431) [µg/mL] | Ratio [1]
COc1ccc(C2=C(c3cc(OC)c(OC)c(OC)c3)C(O)CC2)cc1 (configuration not stated) | 0.039 (≈ 0.109 µM) | 0.045 (≈ 0.126 µM) |  | 
COc1ccc(C2=C(c3cc(OC)c(OC)c(OC)c3)CCC2)cc1 | > 1 | > 1 |  | 
COc1ccc(C2=C(c3cc(OC)c(OC)c(OC)c3)C(=O)CC2)cc1O | 0.013 (≈ 0.0351 µM) | 0.012 (≈ 0.0324 µM) | 0.009 (≈ 0.0243 µM) | 
COc1ccc(C2=C(c3cc(OC)c(OC)c(OC)c3)C(=O)C=C2)cc1 | 0.011 (≈ 0.0312 µM) | 0.013 (≈ 0.0369 µM) |  | 
COc1ccc(C2=C(c3cc(OC)c(OC)c(OC)c3)C(=O)CC2)cc1N | 0.008 (≈ 0.0217 µM) | 0.008 (≈ 0.0217 µM) | 0.009 (≈ 0.0244 µM) | 59
COc1ccc(C2=C(c3cc(OC)c(OC)c(OC)c3)COC2)cc1 | > 1 | > 1 |  | 
COc1ccc(C2=C(c3cc(OC)c(OC)c(OC)c3)C(=O)CC2)cc1 | 0.015 (≈ 0.0423 µM) | 0.021 (≈ 0.0593 µM) | 0.021 (≈ 0.0593 µM) | 
COc1cc(C2=C(c3ccc4ccccc4c3)CCC2=O)cc(OC)c1OC | 0.029 (≈ 0.0774 µM) | 0.031 (≈ 0.0828 µM) | 0.034 (≈ 0.0908 µM) | 
COc1cccc2c1C(=O)c1c(O)c3c(c(O)c1C2=O)C[C@@](O)(C(=O)CO)C[C@@H]3O[C@H]1C[C@H](N)[C@H](O)[C@H](C)O1 [DOXORUBICIN] |  |  | 0.117 (≈ 0.215 µM) | 
